US20250027958A1, “DIAGNOSTIC AND THERAPEUTIC METHODS USING HEME AS A BIOMARKER FOR CELLULAR AND TISSUE DAMAGE” (Beth Israel Deaconess Medical Center, Inc., priority 2021, published 2025)
“Also recorded” adds a separate entry of the source.

System: male C57BL/6 mice
Conditions: DOX 20 mg/kg i.p., blood collected 1 hr later
Method: In brief, for the assessment of acute cytotoxicity, male C57BL/6 mice (10-12 weeks old) are administered HBI-002 (10 ml/kg, per os) or a control vehicle (10ml/kg, per os) at 0 hr and 1 hr, followed by administration of doxorubicin at 1.25 hr (20 mg/kg, intraperitoneal injection) and blood and tissue collection at 2.25 hr.
Male C57BL/6 mice (10-12 weeks old) were administered HBI-002 (10 ml/kg, per os) or a control vehicle (10 ml/kg, per os) at 0 hr and 1 hr, followed by administration of DOX at 1.25 hr (20 mg/kg, intraperitoneal injection) and blood and tissue collection at 2.25 hr (FIG. 1).

SMILES: COc1cccc2c1C(=O)c1c(O)c3c(c(O)c1C2=O)C[C@@](O)(C(=O)CO)C[C@@H]3O[C@H]1C[C@H](N)[C@H](O)[C@H](C)O1 [DOX, Doxorubicin]
- serum heme upon administration of DOX: significant increases in heme levels; also recorded: significant increase in serum heme
